Test results from article PMC7913412, “Identification and characterization of heteroclitic peptides in TCR-binding positions with improved HLA-binding efficacy” (Journal of Translational Medicine, 2021).

Molecular target: H2-Db molecule (Mus musculus, UniProt P01899)
Experiment: Peptide binding affinity assay on TAP-deficient RMA-S cells (anti-H-2Db staining, flow cytometry)
Assay type: cell-based
Conditions: 3 x 10^5 cells/well, peptide 1, 5, 10 μM, 4 h at 37 °C, anti-H-2Db antibody, flow cytometry MFI, triplicate
Experimental: Peptide binding affinity to H2-Db molecule was performed for each selected peptide. Tap-deficient mouse derived H-2Db RMA-S cells were cultured for 24 h at 26 °C to accumulate empty MHC-I molecules on the cell surface. Cells were washed in serum-free medium and incubated at 3 × 10^5 cells/well with varying concentrations of peptides (1 μM, 5 μM, 10 μM) for 4 h at 37 °C with 5% CO2. Cells were harvested, washed with phosphate-buffered saline (1 × PBS; Gibco Life Technologies), stained with anti-H-2Db fluorescent monoclonal antibody (cat. 1157535; SONY) and analyzed by flow cytometry. All the experiments were performed in triplicate.
In order to experimentally confirm the binding of heteroclitic peptides to H-2 Db molecule, the H-2 Db positive RMA-S cell line was loaded with different concentrations (1 μM, 5 μM, 10 μM) of selected heteroclitic peptides modified in p4 with a predicted affinity higher than the wt peptide.

H2-Db molecule, sequence (P01899 whole entry, looked up): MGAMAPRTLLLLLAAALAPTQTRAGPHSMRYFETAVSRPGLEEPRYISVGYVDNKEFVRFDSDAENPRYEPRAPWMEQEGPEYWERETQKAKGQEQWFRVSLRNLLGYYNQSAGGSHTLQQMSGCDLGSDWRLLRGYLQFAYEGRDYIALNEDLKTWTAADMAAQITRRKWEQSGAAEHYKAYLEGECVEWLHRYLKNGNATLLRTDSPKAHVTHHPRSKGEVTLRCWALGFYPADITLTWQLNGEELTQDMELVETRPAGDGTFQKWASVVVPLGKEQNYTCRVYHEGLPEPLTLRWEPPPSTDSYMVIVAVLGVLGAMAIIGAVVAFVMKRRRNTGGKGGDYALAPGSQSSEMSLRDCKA

Row | Sequence | Binding to H-2Db compared with the wt peptide (in words)
1 | RAHWNIVTF [RAHWNIVTF (MUT418), heteroclitic HPV-E7 peptide, Trp at p4] | strongest binding
2 | SVYCFFVWL [SVYCFFVWL (MUT41), heteroclitic Trp2 peptide, Cys at p4] | binding lower than the wt
3 | SVYEFFVWL [SVYEFFVWL (MUT42), heteroclitic Trp2 peptide, Glu at p4] | binding lower than the wt
4 | SVYWFFVWL [SVYWFFVWL (MUT417), heteroclitic Trp2 peptide, Trp at p4] | binding lower than the wt
